Results on one compound are retold here after patent publication US8962018B2, “Oral formulation of anhydrous olanzapine form I” (Laboratorios Lesvi, S.L., priority 2005, dated 2015).

Common to all, as to type: physicochemical
The nature of series [1]: X-ray diffraction study of polymorphic form after direct compression. As to conditions: after direct compression into tablets.
Series [2] in a line: Effect of aqueous medium used for the coating on stability of the solid form. As to conditions: aqueous medium used for preparation of the coating.
Series [3] in a line: Stability of olanzapine Form I product under ambient storage conditions. The procedure:
Said method includes in vacuo drying of the solvate at a pressure ranging between 1 and 40 mmHg, preferably between 1 and 20 mmHg, and a temperature controlled between 10 and 50° C., preferably between 20 and 40° C. Said method provides olanzapine Form I in a simple manner, with a high yield of the end product (olanzapine Form I) and with high chemical purity (level of total impurities less than 0.3% as determined by HPLC), together with a high polymorphic purity (Form II<2%).

`Cc1cc2c(s1)Nc1ccccc1N=C2N1CCN(C)CC1` [olanzapine Form I, Olanzapine]: the “Polymorphic form stability (formation of Form II)” value in series [1] is “remains stable without any formation of detectable amounts of the polymorph Form II being observed”. Further, the “Related substances and polymorphic form after aqueous coating” value in series [2] is recorded as “no increase of related substances nor change in the polymorphic form”. Besides, the “Stability and colour variations” value in series [3] is “remains stable and does not undergo colour variations”.
